Measured values as given in article PMC5773950 (British Journal of Pharmacology, 2018).
Where two headings read alike, the source gives them in different places. Marks after values point to notes of the source that are not given here.

Columns and labels:
[1] = human
[2] = human; remark: listed apart in the source
5‐HT1A receptor = target: T1, 5‐HT1A receptor (Homo sapiens, UniProt P08908); assay: biochemical; format: binding
T1 sequence (P08908 1-422): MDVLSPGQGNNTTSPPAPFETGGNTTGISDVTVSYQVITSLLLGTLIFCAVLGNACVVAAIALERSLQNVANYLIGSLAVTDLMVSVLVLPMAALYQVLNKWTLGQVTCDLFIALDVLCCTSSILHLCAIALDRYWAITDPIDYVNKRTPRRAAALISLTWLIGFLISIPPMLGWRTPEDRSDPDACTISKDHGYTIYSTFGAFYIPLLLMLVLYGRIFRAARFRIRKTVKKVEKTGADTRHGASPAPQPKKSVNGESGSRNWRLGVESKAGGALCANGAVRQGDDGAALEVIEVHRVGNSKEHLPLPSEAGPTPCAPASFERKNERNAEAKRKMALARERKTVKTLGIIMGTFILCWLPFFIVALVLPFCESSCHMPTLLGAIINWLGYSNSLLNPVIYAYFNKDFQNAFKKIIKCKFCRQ

[3] = in vivo
human NET [4] = target: T2, human NET (Homo sapiens, UniProt P23975); assay: cell-based; format: cell-based
5‐HT2A receptor = 5‐HT2A receptor (Homo sapiens, UniProt P28223); assay: biochemical; format: binding
human DAT = human DAT (Homo sapiens, UniProt Q01959); assay: cell-based
5‐HT2C receptor = target: T3, 5‐HT2C receptor (Homo sapiens, UniProt P28335); assay: biochemical; format: binding
T3 sequence (P28335 33-458): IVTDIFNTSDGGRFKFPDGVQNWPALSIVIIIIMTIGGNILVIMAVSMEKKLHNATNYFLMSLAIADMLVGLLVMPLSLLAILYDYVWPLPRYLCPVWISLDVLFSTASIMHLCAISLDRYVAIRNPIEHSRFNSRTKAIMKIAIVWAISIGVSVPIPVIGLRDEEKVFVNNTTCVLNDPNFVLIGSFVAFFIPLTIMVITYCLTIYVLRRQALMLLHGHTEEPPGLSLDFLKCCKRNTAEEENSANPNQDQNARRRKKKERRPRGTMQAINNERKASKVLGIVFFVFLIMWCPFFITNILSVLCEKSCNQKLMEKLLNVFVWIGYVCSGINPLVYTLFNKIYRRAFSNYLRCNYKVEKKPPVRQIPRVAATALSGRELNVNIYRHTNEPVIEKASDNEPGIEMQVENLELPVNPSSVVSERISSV

human SERT [5] = target: T4, human SERT (Homo sapiens, UniProt P31645); assay: cell-based
[6] = human, in vivo
[7] = in vivo; cited from earlier work
human NET [8] = target: T2, human NET; assay: Transporter-mediated noradrenaline release from preloaded HEK 293 cells; format: cell-based; conditions: 100 μM, 45 min, compared with nisoxetine (negative control)
human SERT [9] = target: T4, human SERT; assay: Transporter-mediated 5-HT release from preloaded HEK 293 cells; format: cell-based; conditions: 100 μM, 15 min, compared with citalopram (negative control)
[10] = mouse; cited from earlier work
[11] = read-out: 5‐HT1A Receptor binding Ki ± SD
[12] = read-out: 5‐HT2A Receptor binding Ki ± SD
[13] = read-out: 5‐HT2C Receptor binding Ki ± SD

Chain of human DAT (Q01959 whole entry): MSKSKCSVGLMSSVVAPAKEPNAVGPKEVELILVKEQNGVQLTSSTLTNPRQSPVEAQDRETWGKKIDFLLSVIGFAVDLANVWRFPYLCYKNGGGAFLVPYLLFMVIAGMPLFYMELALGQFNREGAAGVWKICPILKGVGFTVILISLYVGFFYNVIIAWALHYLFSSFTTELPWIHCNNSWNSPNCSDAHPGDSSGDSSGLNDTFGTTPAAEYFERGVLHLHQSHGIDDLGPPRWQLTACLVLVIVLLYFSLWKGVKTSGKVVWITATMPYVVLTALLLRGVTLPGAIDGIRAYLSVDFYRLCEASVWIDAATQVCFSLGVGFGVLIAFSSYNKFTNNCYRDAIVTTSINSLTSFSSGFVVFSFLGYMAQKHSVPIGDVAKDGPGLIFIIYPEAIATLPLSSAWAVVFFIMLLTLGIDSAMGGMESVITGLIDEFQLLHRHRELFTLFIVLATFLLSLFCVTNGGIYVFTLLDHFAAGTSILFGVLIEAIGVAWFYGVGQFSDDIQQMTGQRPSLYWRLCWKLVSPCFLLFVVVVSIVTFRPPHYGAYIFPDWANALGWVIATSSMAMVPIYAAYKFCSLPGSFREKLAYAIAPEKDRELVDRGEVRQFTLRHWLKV
Chain of 5‐HT2A receptor (P28223 whole entry): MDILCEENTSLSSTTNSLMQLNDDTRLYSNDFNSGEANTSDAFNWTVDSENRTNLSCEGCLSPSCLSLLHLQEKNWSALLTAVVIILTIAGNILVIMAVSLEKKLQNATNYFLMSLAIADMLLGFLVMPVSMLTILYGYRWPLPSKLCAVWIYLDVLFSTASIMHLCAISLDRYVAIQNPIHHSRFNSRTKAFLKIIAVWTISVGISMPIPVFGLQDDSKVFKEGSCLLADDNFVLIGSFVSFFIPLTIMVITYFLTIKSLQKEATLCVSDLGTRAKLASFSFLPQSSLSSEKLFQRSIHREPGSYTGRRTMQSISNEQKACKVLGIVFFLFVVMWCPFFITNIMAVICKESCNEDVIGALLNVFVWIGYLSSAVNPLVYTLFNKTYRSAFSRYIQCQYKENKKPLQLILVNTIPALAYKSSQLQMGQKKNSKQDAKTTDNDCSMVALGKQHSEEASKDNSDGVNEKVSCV
T4 sequence (P31645 whole entry): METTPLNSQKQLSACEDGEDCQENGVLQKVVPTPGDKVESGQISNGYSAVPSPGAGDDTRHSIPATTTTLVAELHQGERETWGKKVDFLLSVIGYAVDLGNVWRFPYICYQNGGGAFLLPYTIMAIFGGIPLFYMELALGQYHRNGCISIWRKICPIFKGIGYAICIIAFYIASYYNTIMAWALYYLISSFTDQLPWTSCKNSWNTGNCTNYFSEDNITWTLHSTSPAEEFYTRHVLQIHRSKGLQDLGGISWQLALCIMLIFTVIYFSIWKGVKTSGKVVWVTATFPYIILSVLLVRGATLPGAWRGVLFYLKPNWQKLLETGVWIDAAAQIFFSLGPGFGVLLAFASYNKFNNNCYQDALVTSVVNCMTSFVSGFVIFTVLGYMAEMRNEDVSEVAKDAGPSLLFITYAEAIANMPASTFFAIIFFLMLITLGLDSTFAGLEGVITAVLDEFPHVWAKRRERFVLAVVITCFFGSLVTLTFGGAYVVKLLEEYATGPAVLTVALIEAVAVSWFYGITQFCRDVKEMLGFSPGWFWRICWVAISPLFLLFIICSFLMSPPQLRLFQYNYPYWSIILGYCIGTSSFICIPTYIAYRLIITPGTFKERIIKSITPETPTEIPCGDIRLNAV
T2 sequence (P23975 whole entry): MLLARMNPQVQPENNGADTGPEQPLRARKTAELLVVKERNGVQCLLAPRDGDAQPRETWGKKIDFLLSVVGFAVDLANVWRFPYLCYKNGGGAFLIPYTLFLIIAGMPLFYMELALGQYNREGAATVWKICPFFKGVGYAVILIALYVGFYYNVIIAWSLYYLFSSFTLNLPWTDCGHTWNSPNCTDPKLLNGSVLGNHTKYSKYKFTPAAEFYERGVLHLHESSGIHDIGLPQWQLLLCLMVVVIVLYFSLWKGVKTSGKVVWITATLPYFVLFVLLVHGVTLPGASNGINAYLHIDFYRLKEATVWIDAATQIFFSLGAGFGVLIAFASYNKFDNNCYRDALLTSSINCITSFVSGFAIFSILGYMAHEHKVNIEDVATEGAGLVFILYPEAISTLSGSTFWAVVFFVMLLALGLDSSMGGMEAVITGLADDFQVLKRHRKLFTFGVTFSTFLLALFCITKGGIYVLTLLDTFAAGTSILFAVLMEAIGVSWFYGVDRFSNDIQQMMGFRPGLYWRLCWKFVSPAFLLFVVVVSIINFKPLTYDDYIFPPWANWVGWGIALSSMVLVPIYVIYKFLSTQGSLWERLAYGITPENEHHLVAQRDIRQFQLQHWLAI

## CNCC[C@H](Oc1cccc2ccccc12)c1cccs1 [Duloxetine]
[1]
  Medline database: number of published cases of serotonin syndrome: 20
[2]
  WHO database: cases of serotonin syndrome, only suspected cause: 550
  WHO database: cases of serotonin syndrome, only suspected cause or among others: 993

## CN(C)C[C@H]1CCCC[C@]1(O)c1cccc(O)c1 (relative stereo) [O‐desmethyltramadol, O‐desmethyl‐cis‐tramadol]
5‐HT1A receptor; [11]
  Ki: > 17 µM
[3]
  Cu,brain: 0.1–1.1 ^k μM
Human NET [4]; read-out: NET IC50 (95% CI)
  IC50: 6.1 µM
5‐HT2A receptor; [12]
  Ki: > 13 µM
Human DAT; read-out: DAT IC50 (95% CI)
  IC50: > 100 µM

## CCC(=O)C(CC(C)N(C)C)(c1ccccc1)c1ccccc1 (centres unmarked) [Methadone]
5‐HT1A receptor
  Ki: > 17 µM
[1]
  Medline database: number of published cases of serotonin syndrome: 3
Human NET [4]
  IC50: 4.1 µM
5‐HT2C receptor
  Ki: 2.2 ± 0.3 µM
5‐HT2A receptor
  Ki: 0.61 ± 0.03 µM
[2]
  WHO database: cases of serotonin syndrome, only suspected cause: 2
  WHO database: cases of serotonin syndrome, only suspected cause or among others: 93
Human SERT [5]
  IC50: 0.23 µM
Human SERT [5]; SERT inhibition in vitro IC50
  IC50: 0.23 µM
Human DAT
  IC50: > 100 µM

## CN1CC[C@]23c4c5ccc(O)c4O[C@H]2C(=O)CC[C@@]3(O)[C@H]1C5 [Oxymorphone]
5‐HT1A receptor
  Ki: > 17 µM
[1]
  Medline database: number of published cases of serotonin syndrome: 0
Human NET [4]
  IC50: > 100 µM
5‐HT2A receptor
  Ki: > 13 µM
[2]
  WHO database: cases of serotonin syndrome, only suspected cause: 0
  WHO database: cases of serotonin syndrome, only suspected cause or among others: 3
Human SERT [5]
  IC50: > 100 µM
Human DAT
  IC50: > 100 µM

## CCOC(=O)C1(c2ccccc2)CCN(C)CC1 [Pethidine]
[6]
  Cu,plasma: 0.3 to 2.3 µM
[6]; im
  estimated maximal plasma concentration at maximal single dose: e Maximal concentration after a single dose of pethidine of 50 mg intramuscularly was 2 μM (Erstad et al., 1997). The drug label indicates threefold higher maximal single doses of 150 mg i.m. resulting in threefold higher estimated concentrations up to 6 μM.
[1]
  Medline database: number of published cases of serotonin syndrome: 5
[3]; human
  Cu,brain: 0.7–5.4 ^h μM
[7]
  Maximal plasma concentration after a single dose: e Maximal concentration after a single dose of pethidine of 50 mg intramuscularly was 2 μM (Erstad et al., 1997). The drug label indicates threefold higher maximal single doses of 150 mg i.m. resulting in threefold higher estimated concentrations up to 6 μM.
[2]
  WHO database: cases of serotonin syndrome, only suspected cause: 6
  WHO database: cases of serotonin syndrome, only suspected cause or among others: 66

## CNC(C)Cc1ccc2c(c1)OCO2 (centres unmarked) [MDMA, 3,4‐Methylenedioxymethamphetamine]
Human NET [8]
  Transporter-mediated noradrenaline release: induced significantly greater 5‐HT and noradrenaline release
Human SERT [9]
  Transporter-mediated 5-HT release: induced significantly greater 5‐HT and noradrenaline release

## COc1ccc2c3c1O[C@H]1C(=O)CC[C@@]4(O)[C@@H](C2)N(C)CC[C@]314 [Oxycodone]
[6]
  Cu,plasma: 0.2 µM
5‐HT1A receptor
  Ki: > 17 µM
[10]
  fu,plasma: 0.6
[1]
  Medline database: number of published cases of serotonin syndrome: 13
Human NET [4]
  IC50: > 100 µM
5‐HT2A receptor
  Ki: > 13 µM
[2]
  WHO database: cases of serotonin syndrome, only suspected cause: 2
  WHO database: cases of serotonin syndrome, only suspected cause or among others: 101
Human SERT [5]
  IC50: > 100 µM
Human SERT [5]; SERT inhibition in vitro IC50
  IC50: > 100 µM
Human DAT
  IC50: > 100 µM

## COc1ccc2c3c1O[C@H]1[C@@H](O)C=C[C@H]4[C@@H](C2)N(C)CC[C@@]341 [Codeine]
5‐HT1A receptor
  Ki: > 17 µM
[1]
  Medline database: number of published cases of serotonin syndrome: 0
Human NET [4]
  IC50: > 100 µM
5‐HT2A receptor
  Ki: > 13 µM
[2]
  WHO database: cases of serotonin syndrome, only suspected cause: 0
  WHO database: cases of serotonin syndrome, only suspected cause or among others: 32
Human SERT [5]
  IC50: > 100 µM
Human DAT
  IC50: > 100 µM

## COc1cccc(C2(O)CCCCC2CN(C)C)c1 (centres unmarked) [Tramadol]
5‐HT1A receptor
  Ki: > 17 µM
[1]
  Medline database: number of published cases of serotonin syndrome: 26
[3]; human
  Cu,brain: 0.1–4.6 ^j μM
Human NET [4]
  IC50: 2.1 µM
[7]
  Ctotal,plasma: 0.1–2.5 ^a μM
[2]
  WHO database: cases of serotonin syndrome, only suspected cause: 62
  WHO database: cases of serotonin syndrome, only suspected cause or among others: 647
Human DAT
  IC50: 100 µM

## CN(C)CCCC1(c2ccc(F)cc2)OCc2cc(C#N)ccc21 (centres unmarked) [Citalopram]
[1]
  Medline database: number of published cases of serotonin syndrome: 57
[2]
  WHO database: cases of serotonin syndrome, only suspected cause: 178
  WHO database: cases of serotonin syndrome, only suspected cause or among others: 777

## CC[C@@H](c1cccc(O)c1)[C@@H](C)CN(C)C [Tapentadol]
[6]
  Cu,plasma: 0.1 to 1.5 µM
5‐HT1A receptor
  Ki: > 17 µM
[1]
  Medline database: number of published cases of serotonin syndrome: 1
[3]; human
  Cu,brain: 0.2–3.5 ^l μM
Human NET [4]
  IC50: 1.3 µM
  fold more potent inhibitor of the NET versus SERT: 2.6 fold
[7]
  Ctotal,plasma: 0.1 to 1.9 µM
5‐HT2C receptor
  Ki: 12 ± 3.2 µM
5‐HT2A receptor
  Ki: 6.3 ± 0.2 µM
[2]
  WHO database: cases of serotonin syndrome, only suspected cause: 42
  WHO database: cases of serotonin syndrome, only suspected cause or among others: 115
Human SERT [5]
  IC50: 3.3 µM
  SERT/NET ratio (95% CI): 0.39 (0.21–0.70)
Human DAT
  IC50: 78 µM

## COc1ccc2c3c1O[C@H]1[C@@H](O)CC[C@H]4[C@@H](C2)N(C)CC[C@@]341 [Dihydrocodeine]
5‐HT1A receptor
  Ki: > 17 µM
[1]
  Medline database: number of published cases of serotonin syndrome: 0
Human NET [4]
  IC50: > 100 µM
5‐HT2A receptor
  Ki: > 13 µM
[2]
  WHO database: cases of serotonin syndrome, only suspected cause: 0
  WHO database: cases of serotonin syndrome, only suspected cause or among others: 4
Human SERT [5]
  IC50: > 100 µM
Human DAT
  IC50: > 100 µM

## COc1ccc2c3c1O[C@H]1C(=O)CC[C@H]4[C@@H](C2)N(C)CC[C@]314 [Hydrocodone]
5‐HT1A receptor
  Ki: > 17 µM
[1]
  Medline database: number of published cases of serotonin syndrome: 2
Human NET [4]
  IC50: > 100 µM
5‐HT2A receptor
  Ki: > 13 µM
[2]
  WHO database: cases of serotonin syndrome, only suspected cause: 0
  WHO database: cases of serotonin syndrome, only suspected cause or among others: 6
Human SERT [5]
  IC50: > 100 µM
Human DAT
  IC50: > 100 µM

## COc1ccc2c(c1)[C@]13CCCC[C@@H]1[C@H](C2)N(C)CC3 [Dextromethorphan]
5‐HT1A receptor
  Ki: > 17 µM
[1]
  Medline database: number of published cases of serotonin syndrome: 12
[3]; human
  Cu,brain: 0–0.44 ^d μM
Human NET [4]
  IC50: 5.8 µM
[2]
  WHO database: cases of serotonin syndrome, only suspected cause: 7
  WHO database: cases of serotonin syndrome, only suspected cause or among others: 86
Human DAT
  IC50: > 100 µM

## CCC(=O)C(C[C@@H](C)N(C)C)(c1ccccc1)c1ccccc1 [l(R)‐methadone]
5‐HT1A receptor; [11]
  Ki: > 17 µM
Human NET [4]; read-out: NET IC50 (95% CI)
  IC50: 2.5 µM
5‐HT2C receptor; [13]
  Ki: 2.6 ± 0.3 µM
5‐HT2A receptor; [12]
  Ki: 0.72 ± 0.61 µM
Human SERT [5]; read-out: SERT IC50 (95% CI)
  IC50: 0.28 µM
Human DAT; read-out: DAT IC50 (95% CI)
  IC50: > 100 µM

## COc1ccc(C(CN(C)C)C2(O)CCCCC2)cc1 (centres unmarked) [Venlafaxine]
5‐HT1A receptor
  Ki: > 17 µM
[1]
  Medline database: number of published cases of serotonin syndrome: 75
5‐HT2C receptor
  Ki: > 15 µM
[2]
  WHO database: cases of serotonin syndrome, only suspected cause: 240
  WHO database: cases of serotonin syndrome, only suspected cause or among others: 859

## CN1CC[C@]23c4c5ccc(O)c4O[C@H]2[C@@H](O)C=C[C@H]3[C@H]1C5 [Morphine]
5‐HT1A receptor
  Ki: > 17 µM
[1]
  Medline database: number of published cases of serotonin syndrome: 4
5‐HT2A receptor
  Ki: > 13 µM
[2]
  WHO database: cases of serotonin syndrome, only suspected cause: 1
  WHO database: cases of serotonin syndrome, only suspected cause or among others: 64

## CNCCC(Oc1ccc(C(F)(F)F)cc1)c1ccccc1 (centres unmarked) [Fluoxetine]
[1]
  Medline database: number of published cases of serotonin syndrome: 54
[2]
  WHO database: cases of serotonin syndrome, only suspected cause: 181
  WHO database: cases of serotonin syndrome, only suspected cause or among others: 641

## CC(=O)Oc1ccc2c3c1O[C@H]1[C@@H](OC(C)=O)C=C[C@H]4[C@@H](C2)N(C)CC[C@@]341 [Heroin, diacetylmorphine]
5‐HT1A receptor
  Ki: > 17 µM
Human NET [4]
  IC50: > 100 µM
5‐HT2A receptor
  Ki: > 13 µM
Human SERT [5]
  IC50: > 100 µM
Human DAT
  IC50: > 100 µM

## CCC(=O)C(C[C@H](C)N(C)C)(c1ccccc1)c1ccccc1 [d(S)‐methadone]
5‐HT1A receptor; [11]
  Ki: > 17 µM
Human NET [4]; read-out: NET IC50 (95% CI)
  IC50: 69 µM
5‐HT2C receptor; [13]
  Ki: 1.9 ± 0.2 µM
5‐HT2A receptor; [12]
  Ki: 0.52 ± 0.11 µM
Human SERT [5]; read-out: SERT IC50 (95% CI)
  IC50: 5.6 µM
Human DAT; read-out: DAT IC50 (95% CI)
  IC50: > 100 µM

## CC(=O)O[C@H]1C=C[C@H]2[C@H]3Cc4ccc(O)c5c4[C@@]2(CCN3C)[C@H]1O5 [6‐Acetylmorphine, 6‐acetylmorphine]
5‐HT1A receptor
  Ki: > 17 µM
Human NET [4]
  IC50: > 100 µM
5‐HT2A receptor
  Ki: > 13 µM
Human SERT [5]
  IC50: > 100 µM
Human DAT
  IC50: > 100 µM
